Data from US20250352498A1, “PHARMACEUTICAL FORMULATIONS CONTAINING PHENYLBUTYRATE AND METHODS THEREOF” (AARDVARK THERAPEUTICS INC., priority 2024, published 2025).

What does the source list for sodium phenylbutyrate?
solubility in hydrophilic solvent (hydrophilic solvent): highly soluble; solubility in hydrophobic excipients (hydrophobic excipients): poorly soluble; water solubility (water): freely water soluble
